According to US7652070B2, “Treatment method for MMP-implicated pathologies” (priority 2007, dated 2010):

Assays:
[1] = system: cystinosis patients; conditions: cited from earlier work
[2] = system: pre-renal transplant cystinotics; conditions: cited from earlier work
[3] = target: MMP-9 (Homo sapiens, UniProt P14780); experiment: Breakdown/inhibition of MMP-9 by cysteamine analyzed by zymography; assay type: biochemical; conditions: Michaelis-Mentin kinetics, FIG. 1
Excerpt: FIG. 1 is a table illustrating inhibition of MMP-9 by cysteamine.
FIG. 1 illustrates the result of a laboratory test showing the breakdown of MMP-9 as analyzed by zymography. Because enzymes are structure specific, it can be inferred that there is inhibition of MMP-9 by cysteamine. It is believed that cysteamine inactivates MMP by breaking an important sulfur bond, causing the enzyme to unfold.

Sequence of MMP-9 (P14780 94-707): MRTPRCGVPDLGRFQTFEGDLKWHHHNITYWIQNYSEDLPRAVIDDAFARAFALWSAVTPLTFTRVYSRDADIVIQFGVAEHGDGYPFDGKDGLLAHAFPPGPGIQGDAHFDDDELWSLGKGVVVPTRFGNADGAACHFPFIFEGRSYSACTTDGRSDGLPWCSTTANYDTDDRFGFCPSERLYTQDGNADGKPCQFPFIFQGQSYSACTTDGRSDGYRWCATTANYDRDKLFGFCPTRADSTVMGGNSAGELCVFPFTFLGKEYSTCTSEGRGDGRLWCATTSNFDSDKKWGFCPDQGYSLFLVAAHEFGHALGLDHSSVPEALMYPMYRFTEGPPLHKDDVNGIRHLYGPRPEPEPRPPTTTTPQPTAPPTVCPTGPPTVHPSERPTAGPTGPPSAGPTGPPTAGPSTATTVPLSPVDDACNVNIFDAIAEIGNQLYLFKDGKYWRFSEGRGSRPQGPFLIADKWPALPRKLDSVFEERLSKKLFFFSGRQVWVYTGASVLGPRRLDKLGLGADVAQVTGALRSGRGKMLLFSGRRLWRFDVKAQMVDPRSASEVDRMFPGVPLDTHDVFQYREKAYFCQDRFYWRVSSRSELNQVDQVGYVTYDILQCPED

Row | Compound | efficacy of eye drop concentration ([1]; concentration 0.1%, cystinosis patients) | toxicity of eye drops ([1]; eye drop 0.5%, preserved with benzalkonium, up to 12 times per day, slight burning sensation possible) | effect of cysteamine therapy on growth and renal function [2] | toxicity of cysteamine therapy [2] | Ki [3] [µM]
1 | Cl.NCCS [Cysteamine {HCl}] | effective | no toxicity has not been observed |  |  | 
2 | NCCS [cysteamine, Cysteamine (HSCH2CH2NH2)] |  |  | improved growth and stabilized renal function | without substantial toxicity | 530 ± 140
